# Source: ChEMBL document CHEMBL6109128, “Copper-KRAS-COX2 Axis: A Therapeutic Vulnerability in Pancreatic Cancer” (J Med Chem, 2025)
# Activity calls are given as the source filed them. The rule behind the calls is not given here.
# Legend:
# [1] = test system: HCT-116; assay: Induction of apoptosis in human HCT-116 cells assessed as upregulation of cleaved PARP level measured for 48 hrs by Western blot analysis; format: functional, cell-based; conditions: dose 10.0 µM
# [2] = Drug concentration in mouse liver at 30 mg/kg, po measured at 24 hrs; format: ADME, organism-based; conditions: read-out: Ct
# [3] = Toxicity in BALB/c mouse assessed as colon damage at 20 mg/kg, po measured after 29 days by H and E staining based analysis; format: organism-based; conditions: in vivo, 696 h, time 29 day
# [4] = test system: CT26; assay: Antitumor activity against mouse CT26 cells implanted in BALB/c mouse assessed as increase in cleaved PARP level at 140 mg/kg, iv administered for 3 days; format: functional, organism-based; conditions: time 3.0 day
# [5] = Toxicity in BALB/c mouse assessed as maximum tolerated dose at IV measured for 7 days; conditions: in vivo, time 7 day
# [6] = test system: CT26; assay: Antitumor activity against mouse CT26 cells implanted in BALB/c mouse assessed as increase in animal survival at 100 mg/kg, po measured after 14 days; format: functional, organism-based; conditions: time 14.0 day
# [7] = Toxicity in BALB/c mouse assessed as lung damage at 20 mg/kg, po measured after 29 days by H and E staining based analysis; format: organism-based; conditions: in vivo, 696 h, time 29 day
# [8] = Toxicity in BALB/c mouse assessed as liver damage at 20 mg/kg, po measured after 29 days by H and E staining based analysis; format: organism-based; conditions: in vivo, 696 h, time 29 day
# [9] = Toxicity in BALB/c mouse assessed as stomach damage at 20 mg/kg, po measured after 29 days by H and E staining based analysis; format: organism-based; conditions: in vivo, 696 h, time 29 day
# [10] = test system: CT26; assay: Antitumor activity against mouse CT26 cells implanted in BALB/c mouse assessed as tumor growth inhibition at 50 to 100 mg/kg, po administered for 14 days in presence of celecoxib; format: functional, organism-based; conditions: dose 50-100 mg/kg, time 14.0 day
# [11] = Drug concentration in mouse heart at 30 mg/kg, po measured at 7 hrs; format: ADME, organism-based; conditions: read-out: Ct
# [12] = test system: KPC2; assay: Antitumor activity against mouse KPC2 cells implanted in FVB mouse assessed as reduction in tumor burden at 25 mg/kg, po measured after 14 days; format: functional, organism-based; conditions: time 14.0 day
# [13] = Toxicity in BALB/c mouse assessed as heart damage at 20 mg/kg, po measured after 29 days by H and E staining based analysis; format: organism-based; conditions: in vivo, 696 h, time 29 day
# [14] = Drug concentration in mouse liver at 15 mg/kg, iv measured at 7 hrs; format: ADME, organism-based; conditions: read-out: Ct
# [15] = Drug concentration in mouse heart at 30 mg/kg, po measured at 24 hrs; format: ADME, organism-based; conditions: read-out: Ct
# [16] = Drug concentration in mouse kidney at 15 mg/kg, iv measured at 24 hrs; format: ADME, organism-based; conditions: read-out: Ct
# [17] = Toxicity in BALB/c mouse assessed as spleen damage at 20 mg/kg, po measured after 29 days by H and E staining based analysis; format: organism-based; conditions: in vivo, 696 h, time 29 day
# [18] = Drug concentration in mouse plasma at 15 mg/kg, iv measured at 7 hrs; format: ADME, organism-based
# [19] = Drug concentration in mouse plasma at 30 mg/kg, po measured at 24 hrs; format: ADME, organism-based
# [20] = Drug concentration in mouse kidney at 30 mg/kg, po measured at 7 hrs; format: ADME, organism-based; conditions: read-out: Ct
# [21] = Drug concentration in mouse plasma at 15 mg/kg, iv measured at 24 hrs; format: ADME, organism-based
# [22] = test system: Panc02; assay: Antitumor activity against mouse Panc02 cells xenografted in C57BL/6 mouse assessed as tumor growth inhibition at 20 to 40 mg/kg, ip measured for 21 to 28 days; format: functional, organism-based; conditions: dose 20-40 mg/kg, time 21-28 day
# [23] = Drug concentration in mouse liver at 30 mg/kg, po measured at 7 hrs; format: ADME, organism-based; conditions: read-out: Ct
# [24] = Drug concentration in mouse plasma at 30 mg/kg, po measured at 7 hrs; format: ADME, organism-based
# [25] = test system: CT26; assay: Antitumor activity against mouse CT26 cells implanted in BALB/c mouse assessed as inhibition of tumor growth at 100 mg/kg, po measured after 14 days; format: functional, organism-based; conditions: time 14.0 day
# [26] = Toxicity in BALB/c mouse assessed as kidney damage at 20 mg/kg, po measured after 29 days by H and E staining based analysis; format: organism-based; conditions: in vivo, 696 h, time 29 day
# [27] = Drug concentration in mouse liver at 15 mg/kg, iv measured at 24 hrs; format: ADME, organism-based; conditions: read-out: Ct
# [28] = Drug concentration in mouse kidney at 30 mg/kg, po measured at 24 hrs; format: ADME, organism-based; conditions: read-out: Ct
# [29] = test system: CT26; assay: Antitumor activity against mouse CT26 cells implanted in BALB/c mouse assessed as increase in cleaved PARP level at 50 mg/kg, po measured after 14 days; format: functional, organism-based; conditions: time 14.0 day
structure (smiles),measurement,setting,value
N[C@@H]1[C@H]2CN(c3cnc(C(=O)Nc4cc(F)cc5cccnc45)cn3)C[C@@H]12,Activity,[1],Dose-dependent-effect
same,concentration at 24 h,[2],92 ng/g
same,Activity,[3],Non-toxic
same,Activity,[4],Active
same,MTD at 168 h,[5],140 mg/kg
same,Activity,[6],Active
same,Activity,[7],Non-toxic
same,Activity,[8],Non-toxic
same,Activity,[9],Non-toxic
same,TGI,[10],Active
same,concentration at 7 h,[11],1840 ng/g
same,Activity,[12],Active
same,Activity,[13],Non-toxic
same,concentration at 7 h,[14],2140 ng/g
same,concentration at 24 h,[15],57 ng/g
same,concentration at 24 h,[16],53 ng/g
same,Activity,[17],Non-toxic
same,concentration at 7 h,[18],98 ng/mL
same,concentration at 24 h,[19],7 ng/mL
same,concentration at 7 h,[20],6100 ng/g
same,concentration at 24 h,[21],7 ng/mL
same,TGI,[22],Active
same,concentration at 7 h,[23],5530 ng/g
same,concentration at 7 h,[24],293 ng/mL
same,TGI,[25],Active
same,Activity,[26],Non-toxic
same,concentration at 24 h,[27],48 ng/g
same,concentration at 24 h,[28],137 ng/g
same,Activity,[29],Active
